# Reference: ChEMBL document CHEMBL3991601, “The target landscape of clinical kinase drugs” (Science, 2017)
# Calls of active or inactive are those of the source. Cut-off read from the data, not from the text of the source, for most assays here: actives have a measured Kd and inactives only a lower limit.
# Molecular target: T1, Serine/threonine-protein kinase ULK1 (Homo sapiens, UniProt O75385)
# T1 sequence (O75385 whole entry): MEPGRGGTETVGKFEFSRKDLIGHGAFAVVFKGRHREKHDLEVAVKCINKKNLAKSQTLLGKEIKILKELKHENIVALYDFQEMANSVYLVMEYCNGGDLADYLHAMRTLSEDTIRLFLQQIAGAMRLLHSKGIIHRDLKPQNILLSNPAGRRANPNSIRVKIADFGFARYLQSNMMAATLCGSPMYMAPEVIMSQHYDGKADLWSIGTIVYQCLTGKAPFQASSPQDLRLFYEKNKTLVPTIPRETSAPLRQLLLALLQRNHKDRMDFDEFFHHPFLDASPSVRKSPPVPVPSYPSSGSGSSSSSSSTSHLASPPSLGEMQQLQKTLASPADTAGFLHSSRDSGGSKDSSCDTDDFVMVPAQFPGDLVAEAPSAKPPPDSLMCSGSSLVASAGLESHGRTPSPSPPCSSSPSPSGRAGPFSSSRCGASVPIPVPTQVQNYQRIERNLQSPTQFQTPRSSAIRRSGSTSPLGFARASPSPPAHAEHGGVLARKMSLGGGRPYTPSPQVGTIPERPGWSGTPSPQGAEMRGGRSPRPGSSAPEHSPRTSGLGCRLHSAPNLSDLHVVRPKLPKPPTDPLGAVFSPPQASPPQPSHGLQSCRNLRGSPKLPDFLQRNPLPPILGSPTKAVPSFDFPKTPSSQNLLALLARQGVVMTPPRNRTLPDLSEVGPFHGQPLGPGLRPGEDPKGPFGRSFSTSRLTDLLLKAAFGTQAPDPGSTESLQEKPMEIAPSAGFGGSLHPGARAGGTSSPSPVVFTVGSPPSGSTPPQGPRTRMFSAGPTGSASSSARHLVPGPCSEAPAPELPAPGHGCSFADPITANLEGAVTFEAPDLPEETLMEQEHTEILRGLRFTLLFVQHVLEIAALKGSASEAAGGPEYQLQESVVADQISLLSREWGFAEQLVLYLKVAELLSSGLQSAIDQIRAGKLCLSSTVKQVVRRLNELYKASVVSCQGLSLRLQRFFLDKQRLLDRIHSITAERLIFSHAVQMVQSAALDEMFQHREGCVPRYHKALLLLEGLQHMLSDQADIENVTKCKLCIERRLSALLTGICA
# Note: in the data inactive means no Kd found up to 30 µM.
row,SMILES,Kd
1,COc1cc(N2CCC(N3CCN(C)CC3)CC2)ccc1Nc1ncnc(Nc2ccccc2S(=O)(=O)C(C)C)n1 [ASP-3026],> 30 µM (inactive)
2,CNS(=O)(=O)Nc1nccc(Cc2c(C)c3ccc(Oc4ncccn4)cc3oc2=O)c1F [AVUTOMETINIB],> 30 µM (inactive)
3,COc1cc(CCc2cc(NC(=O)c3ccc(N4C[C@@H](C)N[C@@H](C)C4)cc3)n[nH]2)cc(OC)c1 [AZD-4547],> 30 µM (inactive)
4,Cc1cc([C@@H](C)Nc2ccccc2C(=O)O)c2nc(N3CCOCC3)cc(=O)n2c1 [AZD-6482],> 30 µM (inactive)

# Molecular target: Insulin-like growth factor 1 receptor (Homo sapiens, UniProt P08069)
# Sequence (P08069 31-736 limits assumed): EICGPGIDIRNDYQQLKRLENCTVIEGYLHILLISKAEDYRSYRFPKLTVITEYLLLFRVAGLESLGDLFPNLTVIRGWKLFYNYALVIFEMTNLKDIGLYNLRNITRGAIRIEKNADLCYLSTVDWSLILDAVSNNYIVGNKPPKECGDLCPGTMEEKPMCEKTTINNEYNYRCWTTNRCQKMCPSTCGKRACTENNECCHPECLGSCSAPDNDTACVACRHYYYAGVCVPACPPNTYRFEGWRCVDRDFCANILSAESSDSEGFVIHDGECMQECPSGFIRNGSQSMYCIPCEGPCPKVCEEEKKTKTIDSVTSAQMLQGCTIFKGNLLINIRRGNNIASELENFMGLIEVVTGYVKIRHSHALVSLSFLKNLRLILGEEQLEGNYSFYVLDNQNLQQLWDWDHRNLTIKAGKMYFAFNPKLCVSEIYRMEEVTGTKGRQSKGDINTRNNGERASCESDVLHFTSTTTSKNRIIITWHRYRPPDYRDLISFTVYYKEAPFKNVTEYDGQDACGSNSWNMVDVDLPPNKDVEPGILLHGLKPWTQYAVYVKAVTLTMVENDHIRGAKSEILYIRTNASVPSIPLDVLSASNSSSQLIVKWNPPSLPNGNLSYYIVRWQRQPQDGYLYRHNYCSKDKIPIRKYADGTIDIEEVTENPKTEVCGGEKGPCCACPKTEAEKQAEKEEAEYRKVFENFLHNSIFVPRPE
# Sequence (P08069 741-1367 limits assumed): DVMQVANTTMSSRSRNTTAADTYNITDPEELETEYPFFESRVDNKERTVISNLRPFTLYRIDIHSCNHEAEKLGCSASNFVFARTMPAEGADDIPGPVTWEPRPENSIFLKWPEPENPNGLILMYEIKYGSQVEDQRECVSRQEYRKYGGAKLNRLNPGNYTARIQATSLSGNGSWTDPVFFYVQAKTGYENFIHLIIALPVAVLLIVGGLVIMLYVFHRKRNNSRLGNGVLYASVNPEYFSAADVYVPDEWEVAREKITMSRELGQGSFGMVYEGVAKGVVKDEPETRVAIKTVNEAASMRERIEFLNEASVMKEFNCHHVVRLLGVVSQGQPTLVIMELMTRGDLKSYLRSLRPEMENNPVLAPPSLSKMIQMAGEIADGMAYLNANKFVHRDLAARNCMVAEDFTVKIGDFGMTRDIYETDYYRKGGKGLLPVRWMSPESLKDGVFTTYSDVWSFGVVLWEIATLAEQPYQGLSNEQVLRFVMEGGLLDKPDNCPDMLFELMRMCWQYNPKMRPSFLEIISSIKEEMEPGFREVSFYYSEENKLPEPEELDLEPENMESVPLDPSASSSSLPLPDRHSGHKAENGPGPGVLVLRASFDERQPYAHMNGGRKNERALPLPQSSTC
row,SMILES,Kd
1,COc1cc(N2CCC(N3CCN(C)CC3)CC2)ccc1Nc1ncnc(Nc2ccccc2S(=O)(=O)C(C)C)n1 [ASP-3026],9.72 µM (active)
2,CNS(=O)(=O)Nc1nccc(Cc2c(C)c3ccc(Oc4ncccn4)cc3oc2=O)c1F [AVUTOMETINIB],> 30 µM (inactive)
3,COc1cc(CCc2cc(NC(=O)c3ccc(N4C[C@@H](C)N[C@@H](C)C4)cc3)n[nH]2)cc(OC)c1 [AZD-4547],> 30 µM (inactive)
4,Cc1cc([C@@H](C)Nc2ccccc2C(=O)O)c2nc(N3CCOCC3)cc(=O)n2c1 [AZD-6482],> 30 µM (inactive)

# Molecular target: TGF-beta receptor type-2 (Homo sapiens, UniProt P37173)
# Sequence (P37173 whole entry): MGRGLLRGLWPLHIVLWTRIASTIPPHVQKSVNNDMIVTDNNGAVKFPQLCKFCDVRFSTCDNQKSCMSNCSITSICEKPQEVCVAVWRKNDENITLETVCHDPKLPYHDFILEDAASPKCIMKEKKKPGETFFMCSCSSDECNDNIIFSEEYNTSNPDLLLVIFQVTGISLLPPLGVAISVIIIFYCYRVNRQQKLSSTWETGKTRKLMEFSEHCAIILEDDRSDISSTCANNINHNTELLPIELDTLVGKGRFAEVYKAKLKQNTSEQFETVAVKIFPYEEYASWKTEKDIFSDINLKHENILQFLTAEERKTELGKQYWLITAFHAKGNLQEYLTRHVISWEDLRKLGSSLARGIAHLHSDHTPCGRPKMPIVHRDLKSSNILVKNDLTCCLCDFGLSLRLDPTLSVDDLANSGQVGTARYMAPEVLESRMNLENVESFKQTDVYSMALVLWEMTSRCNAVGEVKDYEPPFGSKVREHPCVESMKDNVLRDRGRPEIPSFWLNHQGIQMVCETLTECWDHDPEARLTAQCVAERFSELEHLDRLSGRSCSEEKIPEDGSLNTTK
row,SMILES,Kd
1,COc1cc(N2CCC(N3CCN(C)CC3)CC2)ccc1Nc1ncnc(Nc2ccccc2S(=O)(=O)C(C)C)n1 [ASP-3026],> 30 µM (inactive)
2,CNS(=O)(=O)Nc1nccc(Cc2c(C)c3ccc(Oc4ncccn4)cc3oc2=O)c1F [AVUTOMETINIB],> 30 µM (inactive)
3,COc1cc(CCc2cc(NC(=O)c3ccc(N4C[C@@H](C)N[C@@H](C)C4)cc3)n[nH]2)cc(OC)c1 [AZD-4547],> 30 µM (inactive)
4,Cc1cc([C@@H](C)Nc2ccccc2C(=O)O)c2nc(N3CCOCC3)cc(=O)n2c1 [AZD-6482],> 30 µM (inactive)

# Molecular target: T2, Rab-like protein 3 (Homo sapiens, UniProt Q5HYI8)
# T2 sequence (Q5HYI8 whole entry): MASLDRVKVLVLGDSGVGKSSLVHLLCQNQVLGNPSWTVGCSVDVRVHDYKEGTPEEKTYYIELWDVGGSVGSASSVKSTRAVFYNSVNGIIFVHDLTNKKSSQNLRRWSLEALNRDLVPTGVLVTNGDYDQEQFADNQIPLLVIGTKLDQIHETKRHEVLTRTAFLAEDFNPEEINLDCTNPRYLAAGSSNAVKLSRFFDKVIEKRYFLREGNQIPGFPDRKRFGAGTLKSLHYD
row,SMILES,Kd
1,COc1cc(N2CCC(N3CCN(C)CC3)CC2)ccc1Nc1ncnc(Nc2ccccc2S(=O)(=O)C(C)C)n1 [ASP-3026],> 30 µM (inactive)
2,CNS(=O)(=O)Nc1nccc(Cc2c(C)c3ccc(Oc4ncccn4)cc3oc2=O)c1F [AVUTOMETINIB],> 30 µM (inactive)
3,COc1cc(CCc2cc(NC(=O)c3ccc(N4C[C@@H](C)N[C@@H](C)C4)cc3)n[nH]2)cc(OC)c1 [AZD-4547],> 30 µM (inactive)
4,Cc1cc([C@@H](C)Nc2ccccc2C(=O)O)c2nc(N3CCOCC3)cc(=O)n2c1 [AZD-6482],> 30 µM (inactive)

# Molecular target: T3, MAP kinase-activated protein kinase 5 (Homo sapiens, UniProt Q8IW41)
# T3 sequence (Q8IW41 whole entry): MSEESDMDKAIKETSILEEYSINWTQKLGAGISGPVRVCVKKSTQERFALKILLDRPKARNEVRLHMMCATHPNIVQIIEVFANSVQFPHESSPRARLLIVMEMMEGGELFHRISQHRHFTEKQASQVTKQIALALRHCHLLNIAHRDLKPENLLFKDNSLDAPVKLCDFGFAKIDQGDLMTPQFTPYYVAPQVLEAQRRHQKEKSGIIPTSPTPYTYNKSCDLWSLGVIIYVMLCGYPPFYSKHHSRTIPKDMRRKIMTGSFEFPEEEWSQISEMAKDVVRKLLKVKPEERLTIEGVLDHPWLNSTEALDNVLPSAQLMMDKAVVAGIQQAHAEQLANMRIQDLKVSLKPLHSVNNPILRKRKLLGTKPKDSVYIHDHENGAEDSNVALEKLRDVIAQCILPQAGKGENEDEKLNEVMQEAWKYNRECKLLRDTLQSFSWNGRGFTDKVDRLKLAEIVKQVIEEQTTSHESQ
row,SMILES,Kd
1,COc1cc(N2CCC(N3CCN(C)CC3)CC2)ccc1Nc1ncnc(Nc2ccccc2S(=O)(=O)C(C)C)n1 [ASP-3026],> 30 µM (inactive)
2,CNS(=O)(=O)Nc1nccc(Cc2c(C)c3ccc(Oc4ncccn4)cc3oc2=O)c1F [AVUTOMETINIB],> 30 µM (inactive)
3,COc1cc(CCc2cc(NC(=O)c3ccc(N4C[C@@H](C)N[C@@H](C)C4)cc3)n[nH]2)cc(OC)c1 [AZD-4547],> 30 µM (inactive)
4,Cc1cc([C@@H](C)Nc2ccccc2C(=O)O)c2nc(N3CCOCC3)cc(=O)n2c1 [AZD-6482],> 30 µM (inactive)

# Molecular target: Focal adhesion kinase 1 (Homo sapiens, UniProt Q05397)
# Sequence (Q05397 whole entry): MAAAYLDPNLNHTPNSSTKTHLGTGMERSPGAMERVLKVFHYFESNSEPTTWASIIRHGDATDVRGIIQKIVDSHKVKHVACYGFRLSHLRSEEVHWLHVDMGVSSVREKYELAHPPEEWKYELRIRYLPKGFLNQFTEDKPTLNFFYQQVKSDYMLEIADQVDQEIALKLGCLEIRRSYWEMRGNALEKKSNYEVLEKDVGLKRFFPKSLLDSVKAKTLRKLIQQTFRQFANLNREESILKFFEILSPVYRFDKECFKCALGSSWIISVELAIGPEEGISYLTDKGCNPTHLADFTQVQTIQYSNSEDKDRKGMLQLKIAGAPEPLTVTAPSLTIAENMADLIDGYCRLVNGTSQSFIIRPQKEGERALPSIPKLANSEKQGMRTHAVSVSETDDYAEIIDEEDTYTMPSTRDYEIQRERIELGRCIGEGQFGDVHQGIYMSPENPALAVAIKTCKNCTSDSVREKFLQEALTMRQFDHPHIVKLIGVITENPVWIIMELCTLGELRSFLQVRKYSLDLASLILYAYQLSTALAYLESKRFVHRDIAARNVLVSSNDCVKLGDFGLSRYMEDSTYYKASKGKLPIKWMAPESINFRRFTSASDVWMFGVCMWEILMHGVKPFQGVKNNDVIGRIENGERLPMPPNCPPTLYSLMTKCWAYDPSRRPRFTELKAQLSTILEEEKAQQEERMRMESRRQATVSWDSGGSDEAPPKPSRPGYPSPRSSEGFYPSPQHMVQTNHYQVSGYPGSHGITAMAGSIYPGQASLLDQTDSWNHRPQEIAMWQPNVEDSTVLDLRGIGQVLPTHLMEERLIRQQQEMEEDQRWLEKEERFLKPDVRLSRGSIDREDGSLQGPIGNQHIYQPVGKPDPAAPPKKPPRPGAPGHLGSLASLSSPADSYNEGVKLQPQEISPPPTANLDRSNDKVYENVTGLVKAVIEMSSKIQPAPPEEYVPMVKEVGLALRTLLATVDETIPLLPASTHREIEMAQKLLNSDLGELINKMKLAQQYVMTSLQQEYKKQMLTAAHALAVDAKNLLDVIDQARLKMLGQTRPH
row,SMILES,Kd
1,COc1cc(N2CCC(N3CCN(C)CC3)CC2)ccc1Nc1ncnc(Nc2ccccc2S(=O)(=O)C(C)C)n1 [ASP-3026],0.074 µM (active)
2,CNS(=O)(=O)Nc1nccc(Cc2c(C)c3ccc(Oc4ncccn4)cc3oc2=O)c1F [AVUTOMETINIB],> 30 µM (inactive)
3,COc1cc(CCc2cc(NC(=O)c3ccc(N4C[C@@H](C)N[C@@H](C)C4)cc3)n[nH]2)cc(OC)c1 [AZD-4547],> 30 µM (inactive)
4,Cc1cc([C@@H](C)Nc2ccccc2C(=O)O)c2nc(N3CCOCC3)cc(=O)n2c1 [AZD-6482],> 30 µM (inactive)

# Molecular target: Calcium/calmodulin-dependent protein kinase kinase 2 (Homo sapiens, UniProt Q96RR4)
# Sequence (Q96RR4 whole entry): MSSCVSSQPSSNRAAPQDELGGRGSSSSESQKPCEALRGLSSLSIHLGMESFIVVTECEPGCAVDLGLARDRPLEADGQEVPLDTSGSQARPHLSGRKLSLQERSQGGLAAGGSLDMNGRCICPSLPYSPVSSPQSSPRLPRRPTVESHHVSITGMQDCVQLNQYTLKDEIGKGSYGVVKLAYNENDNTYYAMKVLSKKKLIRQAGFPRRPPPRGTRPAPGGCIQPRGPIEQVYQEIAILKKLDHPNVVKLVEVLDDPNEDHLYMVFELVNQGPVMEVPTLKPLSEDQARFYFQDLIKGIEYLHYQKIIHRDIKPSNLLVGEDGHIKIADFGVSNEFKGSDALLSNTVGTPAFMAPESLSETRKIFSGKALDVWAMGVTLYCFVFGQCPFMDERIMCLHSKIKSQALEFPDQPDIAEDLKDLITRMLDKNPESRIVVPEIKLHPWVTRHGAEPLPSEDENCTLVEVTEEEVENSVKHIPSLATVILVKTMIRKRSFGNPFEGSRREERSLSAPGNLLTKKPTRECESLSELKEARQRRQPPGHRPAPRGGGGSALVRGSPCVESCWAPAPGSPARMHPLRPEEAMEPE
row,SMILES,Kd
1,COc1cc(N2CCC(N3CCN(C)CC3)CC2)ccc1Nc1ncnc(Nc2ccccc2S(=O)(=O)C(C)C)n1 [ASP-3026],9.13 µM (active)
2,CNS(=O)(=O)Nc1nccc(Cc2c(C)c3ccc(Oc4ncccn4)cc3oc2=O)c1F [AVUTOMETINIB],> 30 µM (inactive)
3,COc1cc(CCc2cc(NC(=O)c3ccc(N4C[C@@H](C)N[C@@H](C)C4)cc3)n[nH]2)cc(OC)c1 [AZD-4547],> 30 µM (inactive)
4,Cc1cc([C@@H](C)Nc2ccccc2C(=O)O)c2nc(N3CCOCC3)cc(=O)n2c1 [AZD-6482],> 30 µM (inactive)

# Molecular target: T4, Phosphorylase b kinase gamma catalytic chain, liver/testis isoform (Homo sapiens, UniProt P15735)
# T4 sequence (P15735 whole entry): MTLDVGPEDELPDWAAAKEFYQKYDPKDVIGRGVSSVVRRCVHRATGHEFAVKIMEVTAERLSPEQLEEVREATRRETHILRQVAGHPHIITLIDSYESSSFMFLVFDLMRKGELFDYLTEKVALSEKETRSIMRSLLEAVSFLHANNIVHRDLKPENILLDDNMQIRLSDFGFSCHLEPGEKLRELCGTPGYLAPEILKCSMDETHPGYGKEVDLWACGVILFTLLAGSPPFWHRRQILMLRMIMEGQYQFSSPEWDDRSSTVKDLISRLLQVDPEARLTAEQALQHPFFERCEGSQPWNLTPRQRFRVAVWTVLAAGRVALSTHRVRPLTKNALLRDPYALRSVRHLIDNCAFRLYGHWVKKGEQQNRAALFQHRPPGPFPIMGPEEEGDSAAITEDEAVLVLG
row,SMILES,Kd
1,COc1cc(N2CCC(N3CCN(C)CC3)CC2)ccc1Nc1ncnc(Nc2ccccc2S(=O)(=O)C(C)C)n1 [ASP-3026],> 30 µM (inactive)
2,CNS(=O)(=O)Nc1nccc(Cc2c(C)c3ccc(Oc4ncccn4)cc3oc2=O)c1F [AVUTOMETINIB],> 30 µM (inactive)
3,COc1cc(CCc2cc(NC(=O)c3ccc(N4C[C@@H](C)N[C@@H](C)C4)cc3)n[nH]2)cc(OC)c1 [AZD-4547],> 30 µM (inactive)
4,Cc1cc([C@@H](C)Nc2ccccc2C(=O)O)c2nc(N3CCOCC3)cc(=O)n2c1 [AZD-6482],> 30 µM (inactive)
